The values below come from patent US6583156B1 (Vernalis Research Limited, priority 1998, dated 2003).

Counter-ions that a name gives are not always drawn.

Turning to `COc1cc(C(O)C2CCCCC2)c2ccccc2n1.Cl` (stereo not shown), the melting point (usually the temperature, or range, at which the solid turns liquid) fell in the range of 155.9 to 156.3 °C. For the molecule `Cc1cc(C(O)c2ccccc2)c2ccccc2n1` (stereo not drawn) (as salt: salt) [Example 39, 2-Methyl-α-phenyl-4-quinolinemethanol], the melting point was 192 °C (dec.). For the molecule `Cc1cc(C(O)c2ccsc2)c2ccccc2n1` (stereo not drawn) (as salt: salt) [Example 42, 2-Methyl-α-(3-thienyl)-4-quinolinemethanol], the melting point is 200 °C (dec.).

As for `OC(c1cccs1)c1ccnc2ccccc12` (stereo not drawn) (as salt: salt) [Example 49, α-(2-Thienyl)-4-quinolinemethanol], the melting point is 173 °C (dec.). For the molecule `OC(c1cc(C(F)(F)F)nc2c(C(F)(F)F)cccc12)c1cc(C(F)(F)F)nc2c(C(F)(F)F)cccc12` [Example 8, Bis(2,8-bis(trifluoromethyl)-4-quinolinyl)methanol], the melting point lay within 198 to 199 °C. `OC(Cc1cc(C(F)(F)F)nc2c(C(F)(F)F)cccc12)c1ccccc1` (stereo not drawn) [Example 9, 2,8-Bis(trifluoromethyl)-α-phenyl-4-quinolineethanol] came in with a melting point of 111 to 112 °C. In the case of `CN(C)c1cc(C(O)c2ccccc2)c2ccccc2n1` (stereo not drawn) [Example 35, 2-Dimethylamino-α-phenyl-4-quinolinemethanol] it was 153.6 to 154.3 °C. `OC(c1ccsc1)c1cc(-c2ccccc2)nc2ccccc12` (stereo not drawn) [Example 41, 2-Phenyl-α-(3-thienyl)-4-quinolinemethanol]: the melting point lay in the range of 158 to 159 °C. With `OC(c1ccsc1)c1cc(C(F)(F)F)nc2ccccc12` (stereo not drawn) [Example 43, α-(3-Thienyl)-2-trifluoromethyl-4-quinolinemethanol], the melting point was 144 to 146 °C. On to `OC1(c2cc(C(F)(F)F)nc3ccccc23)CCSC1` (stereo not shown) [Example 44, 3-(2-trifluoromethyl-4-quinolinyl)tetrahydrothiophene-3-ol], for which the melting point fell in the range of 130 to 131 °C. Take `COc1cccc2c(C(O)c3ccsc3)cc(C(F)(F)F)nc12` (stereo not drawn) [Example 46, 8-Methoxy-α-(3-thienyl)-2-trifluoromethyl-4-quinolinemethanol]: the melting point fell in the range of 157 to 158 °C.

As for `OC(Cc1cc(C(F)(F)F)nc2c(C(F)(F)F)cccc12)c1cc2ccccc2o1` (stereo not drawn) [Example 51, α-(2-Benzofuranyl)-2,8-bis(trifluoromethyl)-4-quinolineethanol], the melting point is 123 to 124 °C. `OC1(c2cc(C(F)(F)F)nc3c(C(F)(F)F)cccc23)C=CCC1` (stereo not shown) [Example 53, 1-(2,8-Bis(trifluoromethyl)-4-quinolinyl)cyclopent-2-ene-1-ol] returned a melting point of 73 to 74 °C. In the case of `Cc1cc(C(O)C2CCCCC2)c2cccc(C)c2n1` (stereo not drawn) [Example 54, α-Cyclohexyl-2,8-dimethyl-4-quinolinemethanol] it was 155 to 157 °C.

Regarding `O=C(NCc1ccccc1)c1cc(C(O)C2CCCCC2)c2ccccc2n1` (stereo not shown) [Example 61, N-Benzyl-4-(1-cyclohexyl-1-hydroxymethyl)-2-quinolinecarboxamide], the melting point was 152.8 to 153.3 °C.

For `Cc1cccc2c(C(O)c3ccccn3)cc(Br)nc12` (stereo not drawn) [Example 64, 2-Bromo-8-methyl-α-(2-pyridyl)-4-quinolinemethanol], the melting point was 149 °C (dec.). `Cc1cccc2c(C(O)c3ccccc3)cc(Br)nc12` (stereo not drawn) [Example 65, 2-Bromo-8-methyl-α-phenyl-4-quinolinemethanol]: the melting point was in the range of 130.7 to 131.8 °C. `COc1cc(C(O)c2ccccn2)c2cccc(C)c2n1` (stereo not drawn) [Example 67, 2-Methoxy-8-methyl-α-(2-pyridyl)-4-quinolinemethanol] yielded a melting point of 126.8 to 127.6 °C.

With `Nc1ccccc1C(O)c1cc(C(F)(F)F)nc2c(C(F)(F)F)cccc12` (stereo not drawn) [Example 76, α-(2-Aminophenyl)-2,8-bis(trifluoromethyl)-4-quinolinemethanol], the melting point is 145.9 to 146.2 °C.
